Data set [1] concerns acetylcholine-induced writhing. The experiment in a line: Anti-acetylcholine writhing test (analgesia). Type of data set: in vivo, mice. The note with it: for ED50: Mus musculus, 20 min, mice; for Oral:Parenteral Potency Ratio: peroral ED50 / subcutaneous ED50, anti-acetylcholine test. The protocol: In this test the ability of test compounds to prevent acetylcholine-induced writhing in mice is determined. The following is an adaptation of the method of Collier and co-workers (Brit. J. Pharmacol. Chemother., 32, 295(1968)) by Anne K. Pierson. Anti-acetylcholine Writhing Test
This response has also been called writhing. Animals are pretreated with test compounds (20 minutes for both subcutaneous and oral routes) and observed for two minutes immediately following the administration of acetylcholine. Mice not responding during the two-minute observation period are scored protected while those responding one or more times are scored not protected. Test compounds are screened at doses of 75 and 25 milligrams per kilogram subcutaneously or 150 and 50 mlligrams per kilogram orally. […] ED50 values for active compounds are estimated by probit analysis of quantal scores for 4 or more dosage levels using 15 animals per dose. Vehicle-pretreated control animals are tested concurrently with each run of 15 experimental animals.
(In general: An intraperitoneal irritant provokes the stretching counted in writhing tests.)

Data set [2] has as its system phenazocine (agonist effect in rat tail-flick). The experiment in a line: Tail-flick antagonist test against phenazocine. As to conditions: for ED50: Rattus norvegicus, sc, 10 min, read-out: Tail-flick Antagonist AD50.
The test system of data set [3] is tail-flick response to thermal stimulus. The data set is described as follows: Tail-flick agonist test. The data set is classed as in vivo. The note with it: rats, subcutaneous; for Tail-flick Agonist ED50: 30 minutes after injection. The protocol:
Rats normally respond to a thermal stimulus applied to the tail by flicking their tails out from under the heat source. The intensity of the stimulus utilized is one which produces control response-times (CRT) of 2-4 seconds. Experimental response-times (ERT) are determined 30 minutes after subcutaneous injections. […] Therefore, the maximum possible increase (MPI) in response-time for any given animal is 20 minus the CRT. The average % effect, or % of the maximum possible increase (%MPI) obtained after any given test compound treatment is calculated by the formula [formula] […] Exptl.

Data set [4] is described as follows: Intravenous administration in the dog (unconsciousness, heart rate, blood pressure). The data set is classed as in vivo.
Data set [5] is described as follows: Irritation at the injection site. The data set is classed as in vivo. The note with it: rabbits. The text has this:
A still further important difference is the comparative irritation at the injection site of pentazocine and the compound of Example 1B. The threshold irritation concentration of the latter in rabbits was 2% and of pentazocine, 0.5%.

Data set [6] is described as follows: Tests for analgesia, comparison with cyclazocine and pentazocine. As to conditions: both subcutaneously and orally. Type of data set: in vivo. An excerpt:
The compound of Example 1B having in the free base form the structural formula [drawing 14] is the preferred species of this invention and the biological properties thereof have been carefully compared with those of pentazocine and cyclazocine.

The mark [7] stands for this setting: sc, subcutaneous, 20 minutes pretreatment, read-out: ED50, anti-acetylcholine writhing test.
Setting [8] is: po, peroral, read-out: Peroral ED50, anti-acetylcholine test.

The source of these data is patent publication US4205171A, “Aminomethanobenzazocines and nitromethanobenzazocines” (Sterling Drug Inc., priority 1978, dated 1980).

Where a name gives a salt, the structure may show the parent alone. Read-outs that look alike come from different tables or passages of the source.

As for `CCNc1ccc2c(c1)[C@]1(C)CCN(CC3CC3)[C@H](C2)[C@@H]1C` (relative stereo) [Example 9B, 3-(cyclopropylmethyl)-8-(ethylamino)-1,2,3,4,5,6-hexahydro-cis-6,11-dimethyl-2,6-methano-3-benzazocine], the ED50 came out at 1.3 mg/kg in data set [1] (setting [7]) and 10 mg/kg in data set [2]. Moreover, the “Tail-flick Antagonist % Antagonism” value in data set [2] (rats, subcutaneous, against phenazocine, at 80 mg./kg., different sample) came out at 19%. For the same compound, the “Tail-flick Agonist % MPI” value in data set [3] (at 60 mg./kg.) turned out to be 25%; in data set [3] (at 120 mg./kg., different sample), 21%.
Consider `C[C@H]1[C@H]2Cc3ccc(O)cc3[C@]1(C)CCN2CC1CC1` (relative stereo) [cyclazocine, reference compound], for which, in data set [4], the “Heart rate and blood pressure” value is “increases in heart rate and blood pressure”. Besides, the Unconsciousness result in data set [4] is listed as “produced unconsciousness”. The ED50 in data set [1] (setting [8]) was 5.3 mg/kg; in data set [1] (setting [7]) it was 0.15 mg/kg; in data set [2], 0.028 mg/kg. The “Oral:Parenteral Potency Ratio” value in data set [1] is given as 35. The “Tail-flick Agonist ED50” value in data set [3] is “Inactive at 120”.
Turning to `CCCN1CC[C@@]2(C)c3cc(N)ccc3C[C@@H]1[C@@H]2C` (relative stereo) [Example 6C, 8-amino-cis-6,11-dimethyl-1,2,3,4,5,6-hexahydro-3-propyl-2,6-methano-3-benzazocine dihydrochloride sesquihydrate], the ED50 was determined as 5.6 mg/kg in data set [1] (setting [7]) and 2 mg/kg in data set [2]. Further, the “Tail-flick Agonist ED50” value in data set [3] is “Inactive at 60”.
Regarding `C[C@H]1[C@H]2Cc3ccc(N(C)C)cc3[C@]1(C)CCN2CC1CC1` (relative stereo) [Example 4F, 3-cyclopropylmethyl-8-dimethylamino-cis-6,11-dimethyl-1,2,3,4,5,6-hexahydro-2,6-methano-3-benzazocine dihydrochloride], the ED50 in data set [1] (setting [7]) was 0.79 mg/kg. For the same compound, the “Tail-flick Antagonist % Antagonism” value was determined as 30% in data set [2] (rats, subcutaneous, against phenazocine, at 10 mg./kg.) and 32% in data set [2] (rats, subcutaneous, against phenazocine, at 80 mg./kg.). In data set [3] (at 60 mg./kg.), the “Tail-flick Agonist % MPI” value turned out to be 43%.
Consider `C=CCN1CC[C@@]2(C)c3cc(N)ccc3C[C@@H]1[C@@H]2C` (relative stereo) [Example 8C, 8-amino-1,2,3,4,5,6-hexahydro-cis-6,11-dimethyl-3-(2-propenyl)-2,6-methano-3-benzazocine dihydrochloride], for which the values for the ED50 in data set [1] (setting [7]) and in data set [2] were 2.5 mg/kg and 1.5 mg/kg, respectively.
The corresponding values for `C[C@H]1[C@H]2Cc3ccc(NCc4ccccc4)cc3[C@]1(C)CCN2CC1CC1` (relative stereo) [Example 7, 3-(cyclopropylmethyl)-1,2,3,4,5,6-hexahydro-cis-6,11-dimethyl-8-benzylamino-2,6-methano-3-benzazocine dihydrochloride] are 1.6 mg/kg and 1 mg/kg.
As for `CC[C@H]1[C@H]2Cc3ccc(N)cc3[C@]1(CC)CCN2CC1CC1` (relative stereo) [Example 12H, 8-amino-3-(cyclopropylmethyl)-cis-6,11-diethyl-1,2,3,4,5,6-hexahydro-2,6-methano-3-benzazocine dihydrochloride], the ED50 was 1.3 mg/kg in data set [1] (setting [7]) and 3.8 mg/kg in data set [2].
For `C[C@H]1[C@H]2Cc3ccc(N)cc3[C@]1(C)CCN2CC1CC1` (relative stereo) [Example 1B, 8-amino-3-(cyclopropylmethyl)-1,2,3,4,5,6-hexahydro-cis-6,11-dimethyl-2,6-methano-3-benzazocine dihydrochloride], in data set [4], the “Heart rate and blood pressure” value is on record as “without compromising heart rate or blood pressure”; the Salivation and tremors result was “Salivation and tremors were observed”; the Unconsciousness entry is listed as “produced unconsciousness equivalent to a light plane of anesthesia”. Further, the ED50 in data set [1] (setting [8]) is 3.2 mg/kg. Further, the ED50 in data set [1] (setting [7]) turned out to be 0.8 mg/kg. Further, the “Oral:Parenteral Potency Ratio” value in data set [1] was 4. The same compound registered a Threshold irritation concentration in data set [5] of 2%. The ED50 in data set [2] is 2.7 mg/kg.
For `CC(C)=CCN1CCC2(C)c3cc(O)ccc3CC1C2C` (stereo not drawn) [pentazocine, reference compound], the Unconsciousness result in data set [4] is given as “without unconsciousness”. The Convulsions result in data set [4] (single dose tested) is listed as “induced convulsions”. The ED50 in data set [1] (setting [8]) is 51 mg/kg; in data set [1] (setting [7]) it was 2.2 mg/kg; in data set [2], 6.3 mg/kg. Also, the “Oral:Parenteral Potency Ratio” value in data set [1] was 23. The Threshold irritation concentration in data set [5] was found to be 0.5%. Further, the “Potency relative to the compound of Example 1B in the tests for analgesia” value in data set [6] is recorded as “significantly less potent”. The “Tail-flick Agonist ED50” value in data set [3] was “Inactive at 120”.
Take `C[C@H]1[C@H]2Cc3ccc(NCC4CC4)cc3[C@]1(C)CCN2CC1CC1` (relative stereo) [Example 2E, 3-(cyclopropylmethyl)-8-(cyclopropylmethylamino)-1,2,3,4,5,6-hexahydro-cis-6,11-dimethyl-2,6-methano-3-benzazocine hydrochloride]: the ED50 in data set [1] (setting [7]) was found to be 0.7 mg/kg; in data set [2], 8 mg/kg.
Take `CCCCNc1ccc2c(c1)[C@]1(C)CCN(CC3CC3)[C@H](C2)[C@@H]1C` (relative stereo) [Example 11B, 8-(butylamino)-3-(cyclopropylmethyl)-1,2,3,4,5,6-hexahydro-cis-6,11-dimethyl-2,6-methano-3-benzazocine]: the ED50 in data set [1] (setting [7]) stood at 1 mg/kg.
Consider `C[C@H]1[C@H]2Cc3ccc(N)cc3[C@]1(C)CCN2C` (relative stereo) [Formula G, α-2'-amino-2,5,9-trimethyl-6,7-benzomorphan, reference compound], for which, in data set [1] (setting [7]), the ED50 is 7.5 mg/kg. Also, in data set [2] (rat, in vivo), the Narcotic antagonist activity result is on record as “not a narcotic antagonist”. For the same compound, the “Tail-flick Antagonist AD50” value in data set [2] (rats, subcutaneous, against phenazocine) is listed as “Inactive at 80”. The “Tail-flick Agonist ED50” value in data set [3] is “Inactive at 120”.
For `CCCNc1ccc2c(c1)[C@]1(C)CCN(CC3CC3)[C@H](C2)[C@@H]1C` (relative stereo) [Example 10B, 3-(cyclopropylmethyl)-1,2,3,4,5,6-hexahydro-cis-6,11-dimethyl-8-(propylamino)-2,6-methano-3-benzazocine], the ED50 in data set [1] (setting [7]) is 1.2 mg/kg. Also, the “Tail-flick Antagonist % Antagonism” value in data set [2] (rats, subcutaneous, against phenazocine, at 5 mg./kg., different sample) is recorded as 32%; in data set [2] (rats, subcutaneous, against phenazocine, at 40 mg./kg.), 31%.
For the compound `CNc1ccc2c(c1)[C@]1(C)CCN(CC3CC3)[C@H](C2)[C@@H]1C` (relative stereo) [Example 3B, 3-(cyclopropylmethyl)-1,2,3,4,5,6-hexahydro-cis-6,11-dimethyl-8-(methylamino)-2,6-methano-3-benzazocine dihydrochloride ethanolate hydrate], the figures for the ED50 in data set [1] (setting [7]) and in data set [2] were 0.44 mg/kg and 1.3 mg/kg, respectively. Besides, the “Tail-flick Agonist % MPI” value in data set [3] (at 120 mg./kg.) was found to be 35%.
Turning to `CC(C)CN1CC[C@@]2(C)c3cc(N)ccc3C[C@@H]1[C@@H]2C` (relative stereo) [Example 5C, 8-amino-1,2,3,4,5,6-hexahydro-3-isobutyl-cis-6,11-dimethyl-2,6-methano-3-benzazocine dihydrochloride], the ED50 worked out at 1.5 mg/kg in data set [1] (setting [7]) and 9.4 mg/kg in data set [2].
